Where no end group is shown, it is not given here. The star is where a group is joined. Biotin = O=C1N[C@H]2[C@H](CS[C@H]2CCCCC(=O)*)N1
Key:
[1] = tested on: lungs; settings: administered to the lungs; U.S. Pat. Nos. 9,504,796 and 9,693,990; cited from earlier work
[2] = tested on: alveolar-capillary barrier of heterogeneously flooded regions, isolated adult rat lung; assay: Ventilation 'injury score' in the isolated adult rat lung (Method 2); settings: flooding solution in normal saline with 5% albumin; solutes at about the concentrations present in 1% SURVANTA; FIG. 2A
Source text: Solutes are at about the same concentrations as present in 1% […]® solution. The surfactant protein B (SP-B) and SP-C used are isolated from pulmonary alveolar proteinosis patients; the SP-C, thus, is likely a mixture of fully-, partially- and non-palmitoylated peptide. Two forms of synthetic SP-C are used. One is sSP-Cff-leuc. […] Due to pre-dissolution of certain solutes, at high concentration, in non-aqueous solvents, the final dipalmitoylphosphatidylcholine (DPPC) solution contains 2% methanol; the final SP-B and SP-C solutions contain 1.6% chloroform and 0.8% methanol; and the final sSP-Cff-leuc solution contains 1.3% chloroform and 1.3% ethanol.
Base solution for all groups is normal saline.
Method 2. Ventilation ‘injury score’ in the isolated adult rat lung. An isolated adult rat lung is perfused with a physiologic solution (i.e. the solution is pumped through the lung vessels, including the capillaries) containing a low concentration of a fluorescent dye verified not to alter surface tension. A surface alveolus of the lung is micropunctured and a non-fluorescent test solution is injected. In experimental regions, a sufficiently large volume of liquid is injected to generate a pattern of heterogeneous alveolar flooding; in control regions, a sufficiently small volume of liquid is injected so that the liquid spontaneously clears from the region, leaving behind a micropunctured-but-aerated region. The region is imaged by confocal microscopy over a five minute baseline period at a constant transpulmonary pressure of 5 cm H2O. Five ventilation cycles are supplied to the lung at 0.33 Hz with the equivalent of a positive end-expiratory pressure of 15 cm H2O and with a tidal volume of 6 ml/kg body weight. The lung is then returned to a constant transpulmonary pressure of 5 cm H2O and imaged for 10 additional minutes. Alveolar liquid fluorescence at all time points is normalized by capillary fluorescence.
At baseline, alveolar liquid fluorescence (in flooded alveoli of experimental regions or in the liquid lining layer of control, aerated regions) is low and constant in all regions. Following ventilation, alveolar liquid fluorescence remains unchanged in aerated regions but continually increases with time in heterogeneously flooded regions. […] The increase above baseline in normalized alveolar liquid fluorescence at the last time point of the experiment is used as an injury score. The injury score, which indicates the rate of increase of normalized fluorescence following ventilation, correlates with the surface tension of the test solution.

[3] = tested on: adult rat lung; assay: Facilitation of dilute […] by negatively charged solutes in the adult rat lung; settings: solute at 5 w/v %
Protocol: Method 1. […] Alveolar air pressure is determined with a transducer at the trachea of the constantly-inflated lung. Alveolar liquid phase pressure is determined by servo-nulling pressure measurement.

[4] = low concentrations, in the presence of albumin; reported in an earlier patent publication; cited from earlier work
[5] = tested on: immature fetal rat lung; assay: Opening pressure of the immature fetal rat lung after tracheal instillation (Method 3); settings: 4-5 μl instilled in trachea, embryonic day 18 or 19; with 5% albumin; 1% SURVANTA, 0.0005% SP-C; FIG. 3
Protocol: Solution (4-5 μl), with solutes as specified, is instilled in the trachea of the fluid-filled immature (embryonic day 18 or 19) fetal rat lung. The pressure required to inflate the fetal rat lung for the first time is proportional to surface tension. […] The sSP-Cff-ion lock used is not biotinylated and is dissolved directly in normal saline without additional solvents. n=1 or 2/group.
Method 3. Opening pressure of the immature fetal rat lung. To inflate the initially liquid-filled fetal lung for the first time, the pressure applied at the trachea must be sufficient to overcome a capillary force that is proportional to the surface tension of the liquid in the lung. Thus, following instillation of a test solution in the trachea of the immature fetal rat lung, the opening pressure of the lung is indicative of the surface tension of the test solution. At embryonic day 18 or 19 (term=day 22), a fetus is delivered from a pregnant rat by uterotomy. […] The opening pressure that causes air to flow into the lungs is recorded, and is proportional to the solution surface tension.

[6] = tested on: rats with model lung injury; assay: Therapeutic IV SRB administration in vivo in rats with model lung injury (injurious ventilation, then 4-hr support); settings: rat, target plasma concentration 10 nM
Protocol: The therapeutic efficiencies of clinical method analogues, including tracheal instillation, intravascular (IV) administration, etc. of various surface tension-lowering components can be tested in an animal following generation of model lung injury in the animal. For example, therapeutic IV SRB administration was tested in vivo in rats with model lung injury, as follows. All animals were handled in accord with a protocol approved by the Stevens Institute of Technology Institutional Animal Care and Use Committee. First, the model lung injury was generated by ventilating an anesthetized rat with an excessive tidal (breath) volume (VT) of 42 ml/kg body weight and an end-expiratory pressure of zero for 15 min to physically injure the lungs. Then, modeling clinical treatment of a patient with lung injury, VT was reduced to a protective level of 6 ml/kg, end-expiratory pressure was increased to a positive, protective level of 2 or 10 cm H2O, and the rat continued to be supported by mechanical ventilation for 4 hrs. SRB was administered IV, targeting a plasma concentration of 10 nM, after the injury period and at the start of the support period, mimicking therapeutic administration after the development of respiratory distress but prior to supportive treatment by mechanical ventilation. Oxygenation was tracked during the 4-hr support period. At the end of the support period, the rat was sacrificed, the lungs were isolated, and alveolar T was determined in situ in the isolated lungs using Method 1, above. In lungs from rats sacrificed at the end of the 4-hr support period, T was determined in one aerated alveolus and one flooded alveolus.

[7] = tested on: alveoli of isolated rat lungs; settings: injected into alveoli of isolated lungs in situ; SRB 1 nM-1,000 nM with albumin 3-12 w/v % in alveolar liquid; cited from earlier work
[8] = tested on: alveoli of isolated rat lungs; assay: Surface tension determination in the isolated adult rat lung (Method 1), solutions injected into alveoli in situ; settings: for surface tension (T): alveolar administration
Protocol: Method 1. Surface tension determination in the isolated adult rat lung. In an isolated (excised) adult rat lung, the alveolar liquid is labeled with a fluorescent dye verified not to alter surface tension. T is determined as follows at a curved region of the alveolar air-liquid interface (e.g., the meniscus in a flooded alveolus or the corner of an aerated alveolus). Alveolar air pressure is determined with a transducer at the trachea of the constantly-inflated lung. Alveolar liquid phase pressure is determined by servo-nulling pressure measurement. The three-dimensional interfacial radius of curvature is determined by confocal microscopy. The surface tension is calculated according to the Laplace relation.
Alveoli of isolated rat lungs were injected (or flooded) in situ with various solutions or components and the effects on alveolar surface tension were compared. The accompanying FIG. 1 includes a composite bar chart comparing T values resulting from treatment with various solutions or components. Details, including the compositions and concentrations of any administered solutions or components, are shown below the x-axis of the chart. In more detail, the rat lungs were micropunctured, optionally flooded with red blood cell (RBC) homogenate alone, with albumin, or with albumin and SRB. […] Half of these samples receiving the second injection were additionally subjected to 50 ventilation cycles at the noted pressures. Additional experimental details are described in the Methods section of Nguyen, T L and Perlman, C E, “Sulforhodamine B and exogenous surfactant effects on alveolar surface tension under acute respiratory distress syndrome conditions,” J. Appl. Physiol. 2020, 129(6), 1505-1513, the entire content of which is incorporated herein by reference.
With reference to the accompanying FIG. 1 and its chart, the first data point (bar) corresponds to normal, aerated alveoli in normal lungs, as a control. The red blood cell homogenate was added to the remaining data points to simulate epithelial damage and hemorrhaging of the alveolar capillaries, as may be present in some cases of ARDS.

[9] = tested on: alveolar-capillary barrier of heterogeneously flooded regions, isolated adult rat lung; settings: injected into alveoli of isolated lungs in situ; SRB 1 nM-1,000 nM with albumin 3-12 w/v % in alveolar liquid; cited from earlier work

Molecule: rhodamine WT
- redistribution of edema liquid among alveoli [1]: promoting equitable redistribution of edema liquid among alveoli
- surface tension [1]: capable of lowering surface tension

Molecule: CCCCCCCCCCCCCCCC(=O)OC[C@H](COP(=O)([O-])OCC[N+](C)(C)C)OC(=O)CCCCCCCCCCCCCCC [DPPC, dipalmitoylphosphatidylcholine, reference compound]
- injury score (thus surface tension) [2]: not those containing DPPC or SP-B

Molecule: fibrinogen
- facilitation of the surface activity of 1 vol % SURVANTA [3]: also facilitate 1 vol % SURVANTA®

Molecule: GIPFFPVHLKRLLIVVVVVELIVKVIVGALLMGL (SEQ ID NO:3) (sSP-Cff-ion lock)
- surface tension in the lungs [4]: can lower surface tension in the lungs
- opening pressure (proportional to surface tension), compared with 100% SURVANTA without albumin [5]: at least as effective as 100% SURVANTA in the absence of albumin

Molecule: CCN(CC)c1ccc2c(-c3ccc(S(=O)(=O)O)cc3S(=O)(=O)[O-])c3ccc(=[N+](CC)CC)cc-3oc2c1 [SRB, sulforhodamine B]
- redistribution of edema liquid among alveoli [1]: promoting equitable redistribution of edema liquid among alveoli
- surface tension [1]: capable of lowering surface tension
- plasma markers of lung injury and inflammation [6]: reduce plasma markers of lung injury and inflammation
- ventilation-induced lung injury (VILI) [6]: reduce VILI
- alveolar surface tension (T), determined in isolated lungs after sacrifice ([6]; after injury period, end of 4-hr support period): reduce surface tension specifically in flooded/injured alveoli
- oxygenation ([6]; tracked during 4-hr support period): improve oxygenation
- surface tension [7]: lower surface tension
- speed of T lowering compared with exogenous surfactant ([8]; RBC homogenate plus albumin, FIG. 1): acts faster than exogenous surfactant
- surface tension (T) ([8]; T increased by cell debris): reduce T
- surface tension (T) ([8]; T increased by secretory phospholipase A2 (sPLA2)): reduce T
- alveolar surface tension (T) ([8]; alveoli flooded with RBC homogenate, albumin and SRB included, FIG. 1 bars 4, 7, 8): immediately decreased/normalized
- ventilation injury of flooded alveoli [9]: protect against ventilation injury of flooded alveoli

Molecule: GIPFFPVHLKRLKLLLLLLLLILLLILGALLMGL (SEQ ID NO:2) (sSP-Cff-leuc)
- injury score (thus surface tension) [2]: lower injury score
- surface tension in the lungs [4]: can lower surface tension in the lungs

Molecule: sSP-Cff-ion lock-B: variant of sSP-Cff-ion lock with a biotinylated N-terminal (Biotin-GIPFFPVHLKRLLIVVVVVELIVKVIVGALLMGL)
- injury score (thus surface tension) [2]: lower injury score
- surface tension in the lungs [4]: can lower surface tension in the lungs

B1: SP-B: surfactant protein B isolated from pulmonary alveolar proteinosis patients (protein, UniProt P07988 201-279, looked up)
Pulmonary …: FPIPLPYCWLCRALIKRIQAMIPKGALAVAVAQVCRVVPLVAGGICQCLAERYSVILLDTLLGRMLPQLVCRLVLRCSM
modifications: Pulmonary surfactant-associated protein B
notes: surfactant protein B isolated from pulmonary alveolar proteinosis patients
- injury score (thus surface tension) [2]: not those containing DPPC or SP-B

From US20240091319A1, “DUAL-ADMINISTRATION METHODS FOR TREATING RESPIRATORY DISTRESS” (THE TRUSTEES OF THE STEVENS INSTITUTE OF TECHNOLOGY, priority 2021, published 2024)
